Data taken from ChEMBL document CHEMBL4425153, “Matched and mixed cap derivatives in the tetracyclic indole class of HCV NS5A inhibitors” (Bioorg Med Chem Lett, 2016).
Numbering of substitutions follows the chain as printed.

What was measured:
[1] = Tmax in rat at 10 mg/kg; assay type: ADME, organism-based; settings: in vivo
[2] = target: T1, Nonstructural protein 5A (Hepatitis C virus) (UniProt Q5L478); assay: Inhibition of wild type HCV genotype 2b NS5A assessed as reduction in viral RNA level by cell based real time PCR method; settings: Hepatitis C virus subtype 2b
T1 sequence (whole entry): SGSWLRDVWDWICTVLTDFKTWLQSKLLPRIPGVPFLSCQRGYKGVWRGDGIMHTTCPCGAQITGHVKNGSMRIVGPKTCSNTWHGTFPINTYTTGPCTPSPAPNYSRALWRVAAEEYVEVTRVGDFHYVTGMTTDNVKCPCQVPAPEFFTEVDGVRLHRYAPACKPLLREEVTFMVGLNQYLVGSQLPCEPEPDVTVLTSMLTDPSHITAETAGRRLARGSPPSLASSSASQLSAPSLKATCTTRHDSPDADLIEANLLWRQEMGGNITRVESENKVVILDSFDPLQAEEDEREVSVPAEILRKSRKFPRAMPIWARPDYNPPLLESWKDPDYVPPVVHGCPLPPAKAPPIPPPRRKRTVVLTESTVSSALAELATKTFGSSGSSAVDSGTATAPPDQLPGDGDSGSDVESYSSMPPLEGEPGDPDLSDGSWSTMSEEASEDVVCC

[3] = system: T2, Nonstructural protein 5A (Hepatitis C virus), Q5L478 [Y93H]; assay: Inhibition of HCV genotype 1a NS5A Y93H mutant assessed as reduction in viral RNA level by cell based real time PCR method; settings: Hepatitis C virus subtype 1a
T2 sequence (whole entry): T1 sequence (whole entry) with Y93H

[4] = system: Nonstructural protein 5A (Hepatitis C virus), Q5L478 [UNDEFINED MUTATION]; assay: Inhibition of HCV genotype 1a NS5A L31V mutant assessed as reduction in viral RNA level by cell based real time PCR method; settings: Hepatitis C virus subtype 1a
[5] = target: T1, Nonstructural protein 5A (Hepatitis C virus); assay: Inhibition of wild type HCV genotype 1a NS5A assessed as reduction in viral RNA level by cell based real time PCR method; settings: Hepatitis C virus subtype 1a
[6] = Drug level in rat at 10 mg/kg measured at 1 hr; assay type: ADME, organism-based; settings: in vivo, read-out: Drug uptake
[7] = Cmax in rat at 10 mg/kg; assay type: ADME, organism-based; design: dose 10 mg/kg; settings: in vivo
[8] = Half life in rat at 5 mg/kg; assay type: ADME, organism-based; settings: in vivo
[9] = Cmax in rat at 5 mg/kg; assay type: ADME, organism-based; design: dose 5 mg/kg; settings: in vivo
[10] = Oral bioavailability in rat at 5 mg/kg; assay type: ADME, organism-based; settings: in vivo
[11] = AUC in rat at 5 mg/kg; assay type: ADME, organism-based; settings: in vivo

| Structure (SMILES) | Tmax [1] [h] | EC90 [2] [nM] | EC90 [3] [nM] | EC90 [4] [nM] | EC90 [5] [nM] | concentration at 1 h [6] [nM] | Cmax [7] [nM] | half-life [8] [h] | Cmax [9] [nM] | bioavailability [10] [%] | AUC [11] [nM·h] |
| --- | --- | --- | --- | --- | --- | --- | --- | --- | --- | --- | --- |
| COC(=O)N[C@H](C(=O)N1CCC[C@H]1c1ncc(-c2ccc3c(c2)cc2n3[C@H](c3ccccc3)Oc3cc(-c4cnc([C@@H]5CCCN5C(=O)[C@@H](NC(=O)OC)C5CCOCC5)[nH]4)ccc3-2)[nH]1)C(C)C | 0.75 | 4 | 11 | 0.4 | 0.061 | 30 | 31 |  |  |  |  |
| COC(=O)N[C@H](C(=O)N1CCC[C@H]1c1ncc(-c2ccc3c(c2)O[C@@H](c2ccccc2)n2c-3cc3cc(-c4cnc([C@@H]5CCCN5C(=O)[C@@H](NC(=O)OC)C5CCOCC5)[nH]4)ccc32)[nH]1)C1CCOCC1 |  | 1.2 | 23 | < 0.2 | 0.06 |  |  | 2.4 | 20 | 0 | 4 |
| COC(=O)N[C@H](C(=O)N1CCC[C@H]1c1ncc(-c2ccc3c(c2)O[C@@H](c2ccccc2)n2c-3cc3cc(-c4cnc([C@@H]5CCCN5C(=O)[C@@H](NC(=O)OC)C5CC5)[nH]4)ccc32)[nH]1)C1CC1 |  | > 100 | > 100 | > 100 | 0.028 |  |  |  |  |  |  |
